From PMC4052326, “Alterporriol-Type Dimers from the Mangrove Endophytic Fungus, Alternaria sp. (SK11), and Their MptpB Inhibitions” (Marine Drugs, 2014)

Biological target: T1, Mycobacterium tuberculosis protein tyrosine phosphatase B (MptpB) (Mycobacterium tuberculosis, UniProt I6WXK4)
T1 construct: The full-length PTPB gene was amplified from genomic DNA of the Mtb H37Rv strain; His6 (N); made in house
Assay: biochemical
Type: biochemical
Settings: for IC50: MptpB, substrate DiFMUP, average of two independent experiments, sodium orthovanadate as positive control

T1 sequence (I6WXK4 whole entry, looked up): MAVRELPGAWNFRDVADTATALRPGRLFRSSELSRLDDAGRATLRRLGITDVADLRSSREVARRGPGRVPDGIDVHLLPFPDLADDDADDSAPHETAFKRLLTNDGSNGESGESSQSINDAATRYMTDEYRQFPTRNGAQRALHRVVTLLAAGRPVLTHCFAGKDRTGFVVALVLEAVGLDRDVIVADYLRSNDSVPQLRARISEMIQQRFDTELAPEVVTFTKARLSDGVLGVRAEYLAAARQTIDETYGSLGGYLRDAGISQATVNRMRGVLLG

Structure (SMILES) | IC50 [µM] | inhibitory activity against MptpB (result in words)
COc1cc(O)c2c(c1O)C(c1cc(O)c3c(c1O)C(=O)C1=C(CC(O)C(C)(O)C1)C3=O)C1CC(C)(O)C(O)C(O)C1C2=O (stereo not shown) [Compound 1, alterporriol S] | 64.7 | –
[Na+].[Na+].[Na+].[O]=[V]([O-])([O-])[O-] [Control, sodium orthovanadate, reference compound] | 0.05 | –
COc1cc(O)c2c(c1)C(=O)c1cc(C)c(O)c(-c3c(OC)cc4c(c3O)C(=O)C3=C(C4=O)[C@@H](O)[C@](C)(O)[C@H](O)[C@H]3O)c1C2=O [Compound 2, (+)-aS-alterporriol C] | 8.7 | strong inhibitory activity
